Each block holds one substance with its values, some of them ahead of it.
Experiments:
GFP-14-3-3β = GFP-14-3-3β co-IP with LC-MS/MS, untreated GFP-14-3-3β versus GFP control (14-3-3 interactome); assay type: binding, human
Procedure: (§1) HeLa Kyoto cells expressing transiently transfected pEGFP(C1)-14-3-3β or pEGFP(C1) control plasmid, were incubated with 20 nM Calyculin A (# 9902 S, Cell Signaling Technology) for 12 min. Cells were washed twice on ice with cold PBS and after addition of 500 µL lysis buffer (100 mM NaCl, 10 mM Tris, 0.1% IGEPAL, 1 mM EDTA, 1 mM EGTA, 20 nM Calyculin A, 1x cOmplete Mini protease inhibitor cocktail (Sigma), 1 mM DTT, 1 mM MnCl2) cells were scraped from plates, lysed by 10 pushes through an injection needle (21 G, BD) and the insoluble fraction was pelleted by centrifugation (10 min, 10^4 rcf, 4 °C). Supernatants were then subjected to incubation with 1 µM recombinant phosphatase or buffer for 1 h at 30 °C. Next, we subjected samples to immunoprecipitation using α-GFP nanobodies covalently coupled to agarose beads (2 h, 4 °C, obtained from the EMBL PEPcore Core Facility). Beads were then washed three times with lysis buffer and samples were eluted in 1x LDS sample buffer (Thermo Fisher Scientific) by heating to 70 °C for 10 min.
(§2) The samples were then reduced with 25 mM dithiothreitol (10 min at 70 °C) and alkylated with 55 mM chloroacetamide (room temperature, 30 min, in the dark). Proteins were run on a precast 4–12% NuPAGE gel (ThermoFisher Scientific) for about 1 cm to concentrate the sample prior to in-gel tryptic digestion, which was performed according to the standard procedures. The peptides obtained were dried to completeness and resuspended in 12 µL of buffer A (0.1% FA), and 5 µL of sample were injected per MS measurement. The experiment was carried out in three independent replicates.
(§3) The samples were analyzed by LC-MS/MS on a Dionex Ultimate 3000 nano-HPLC coupled online to a Fusion Lumos Tribrid mass spectrometer (Thermo Fisher Scientific). Peptides were delivered to a trap column (75 µm × 2 cm, packed in-house with 5 µm C18 resin; Reprosil PUR AQ, Dr. Maisch) and washed using 0.1% FA at a flow rate of 5 µL/min for 10 min. Subsequently, peptides were transferred to an analytical column (75 µm × 45 cm, packed in-house with 3 µm C18 resin; Reprosil Gold) applying a flow rate of 300 nL/min and separated using a 60 min linear gradient from 4% to 32% LC solvent B (0.1% FA, 5% DMSO in ACN) in LC solvent A (0.1% FA in 5% DMSO). The eluate from the analytical column was sprayed via a stainless steel emitter (Thermo Fisher Scientific) at a source voltage of 2.1 kV into the mass spectrometer. The transfer capillary was heated to 275 °C. The Fusion Lumos was operated in positive ionization mode and data-dependent acquisition (DDA), automatically switching between MS1 and MS2 spectrum acquisition. Full scan MS1 spectra were recorded in the Orbitrap from 360 to 1300 m/z at a resolution of 60k (automatic gain control (AGC) target value of 4e5 charges, maximum injection time (maxIT) of 50 ms). Up to 20 peptide precursors were isolated (isolation window, 1.7 m/z; maximum injection time, 25 ms; and AGC value, 1e5), fragmented by high-energy collision-induced dissociation (HCD) using 30% normalized collision energy (NCE), and analyzed at a resolution of 15k in the Orbitrap. Precursor ions that were singly charged, unassigned, or with charge states >6+ were excluded. The dynamic exclusion duration of fragmented precursor ions was 20 s.
(§4) Peptide and protein identification and LFQ were performed using MaxQuant software (version 1.6.1.0)[64] by searching the data against all canonical protein sequences as annotated in the Swissprot reference database (human proteins only, 20193 entries, downloaded 22 March 2016, internally annotated with PFAM domains) using the embedded search engine Andromeda[65]. The MaxQuant search was performed using two variable modifications; oxidation of methionine and N-terminal protein acetylation. Carbamidomethylation on cysteines was specified as a fixed modification. Trypsin (Trypsin/P) was specified as the proteolytic enzyme with up to two allowed missed cleavage sites.

[1] = test system: GFP-14-3-3β and its binding proteins; test: GFP-14-3-3β co-IP with LC-MS/MS label-free quantification, untreated versus PP1c-treated; set-up: species or system human
Procedure: as §1, §2, §3, §4

[2] = untreated vs GFP, label-free quantification
[3] = PP1 vs untreated, label-free quantification
[4] = pairwise comparison untreated vs GFP
[5] = pairwise comparison PP1 vs untreated
[6] = untreated vs GFP, LFQ intensities, 3 replicates each
[7] = PP1 vs untreated, LFQ intensities, 3 replicates each
[8] = untreated vs GFP, LFQ intensities, replicates 1-3
[9] = PP1 vs untreated, LFQ intensities, replicates 1-3
[10] = GFP-14-3-3β co-IP LC-MS/MS, untreated vs GFP, student's t-test, label-free quantification, 3 replicates each
[11] = GFP-14-3-3β co-IP LC-MS/MS, PP1 vs untreated, student's t-test, label-free quantification, 3 replicates each
[12] = pairwise comparison untreated GFP-14-3-3β vs GFP, student's t-test, 3 replicates each, LC-MS/MS label-free quantification
[13] = pairwise comparison PP1 vs untreated, student's t-test, 3 replicates each, LC-MS/MS label-free quantification

Substance: FXR2
Difference (log2), untreated vs GFP (GFP-14-3-3β; log2 difference, pairwise comparison untreated vs GFP, label-free quantification, 3 replicates each): -0.343 | Difference (log2), PP1 vs untreated ([1]; log2 difference, pairwise comparison PP1 vs untreated, label-free quantification, 3 replicates each): 2.11

Substance: MAP7D1
Difference (log2), untreated vs GFP (GFP-14-3-3β; [2]): 0.3595 log2 | Difference (log2), PP1 vs untreated [1, 3]: 0.8008 log2

Substance: HSPA9
Difference (log2), untreated vs GFP (GFP-14-3-3β; [8]): -0.4978 log2 | Difference (log2), PP1 vs untreated [1, 9]: -1.091 log2

Substance: XRCC5
Difference (log2), untreated vs GFP (GFP-14-3-3β; [4]): -0.1105 log2 | Difference (log2), PP1 vs untreated [1, 5]: 0.08186 log2

Substance: CLASP1
Difference (log2), untreated vs GFP (GFP-14-3-3β; [10]): 1.4296 log2 | Difference (log2), PP1 vs untreated [1, 11]: -0.7054 log2

Substance: PPIB
Difference (log2), untreated vs GFP (GFP-14-3-3β; [6]): 0.09722 log2 | Difference (log2), PP1 vs untreated [1, 7]: 0.6708 log2

Substance: DNAJA2
Difference (log2), untreated vs GFP (GFP-14-3-3β; [6]): -1.855 log2 | Difference (log2), PP1 vs untreated [1, 7]: 0.6145 log2

Substance: ZC3H4
Difference (log2), untreated vs GFP (GFP-14-3-3β; [4]): 0.7684 log2 | Difference (log2), PP1 vs untreated [1, 5]: -0.1033 log2

Substance: LAMA5
Difference (log2), untreated vs GFP (GFP-14-3-3β; [6]): -1.96 log2 | Difference (log2), PP1 vs untreated [1, 7]: 0.4607 log2

Substance: MLEC
Difference (log2), untreated vs GFP (GFP-14-3-3β; [8]): 0.8854 log2 | Difference (log2), PP1 vs untreated [1, 9]: -1.535 log2

Substance: IQGAP1
Difference (log2), untreated vs GFP (GFP-14-3-3β; [10]): 0.3872 log2 | Difference (log2), PP1 vs untreated [1, 11]: -0.359 log2

Substance: EMD
Difference (log2), untreated vs GFP (GFP-14-3-3β; [2]): -1.504 log2 | Difference (log2), PP1 vs untreated [1, 3]: 1.014 log2

Substance: YES1
Difference (log2), untreated vs GFP (GFP-14-3-3β; [8]): -0.5463 log2 | Difference (log2), PP1 vs untreated [1, 9]: -0.8848 log2

Substance: KIAA1671
Difference (log2), untreated vs GFP (GFP-14-3-3β; [10]): 1.934 log2 | Difference (log2), PP1 vs untreated [1, 11]: -0.2284 log2

Substance: TFAM
Difference (log2), untreated vs GFP (GFP-14-3-3β; [6]): -2.855 log2 | Difference (log2), PP1 vs untreated [1, 7]: 0.5786 log2

Substance: SHROOM3
Difference (log2), untreated vs GFP (GFP-14-3-3β; [12]): 4.814 log2 | Difference (log2), PP1 vs untreated [1, 13]: -2.387 log2

Substance: MCM7
Difference (log2), untreated vs GFP (GFP-14-3-3β; [2]): 0.04561 log2 | Difference (log2), PP1 vs untreated [1, 3]: 1.01 log2

Substance: NUP210
Difference (log2), untreated vs GFP (GFP-14-3-3β; [8]): 2.632 log2 | Difference (log2), PP1 vs untreated [1, 9]: -1.109 log2

Substance: TUBB
Difference (log2), untreated vs GFP (GFP-14-3-3β; [10]): -1.012 log2 | Difference (log2), PP1 vs untreated [1, 11]: -0.1729 log2

Substance: KHDRBS1
Difference (log2), untreated vs GFP (GFP-14-3-3β; [8]): -0.7979 log2 | Difference (log2), PP1 vs untreated [1, 9]: -0.7597 log2

Substance: GCN1L1
Difference (log2), untreated vs GFP (GFP-14-3-3β; [6]): 0.08 log2 | Difference (log2), PP1 vs untreated [1, 7]: 0.3397 log2

Second part, led by results:

Difference (log2), PP1 vs untreated [1, 3]: 0.892 log2
Substance: SVIL
Difference (log2), untreated vs GFP (GFP-14-3-3β; [2]): -1.069 log2

Difference (log2), PP1 vs untreated [1, 5]: 0.1241 log2
Substance: VIM
Difference (log2), untreated vs GFP (GFP-14-3-3β; [4]): 0.4109 log2

Difference (log2), PP1 vs untreated [1, 3]: 0.9288 log2
Substance: G3BP1
Difference (log2), untreated vs GFP (GFP-14-3-3β; [2]): -0.3554 log2

Difference (log2), PP1 vs untreated [1, 7]: 0.3784 log2
Substance: TUBA4A
Difference (log2), untreated vs GFP (GFP-14-3-3β; [6]): -0.9346 log2

Difference (log2), PP1 vs untreated [1, 11]: -0.6453 log2
Substance: AKAP13
Difference (log2), untreated vs GFP (GFP-14-3-3β; [10]): 1.366 log2

Difference (log2), PP1 vs untreated [1, 5]: 0.111 log2
Substance: HERC2
Difference (log2), untreated vs GFP (GFP-14-3-3β; [4]): -0.06655 log2

Difference (log2), PP1 vs untreated [1, 11]: -0.6422 log2
Substance: PCNT
Difference (log2), untreated vs GFP (GFP-14-3-3β; [10]): 1.216 log2

Difference (log2), PP1 vs untreated [1, 11]: -0.2648 log2
Substance: CLTC
Difference (log2), untreated vs GFP (GFP-14-3-3β; [10]): 0.0549 log2

Difference (log2), PP1 vs untreated [1, 11]: -0.3598 log2
Substance: DHX9
Difference (log2), untreated vs GFP (GFP-14-3-3β; [10]): 1.512 log2

Difference (log2), PP1 vs untreated [1, 5]: 0.2079 log2
Substance: SYNCRIP
Difference (log2), untreated vs GFP (GFP-14-3-3β; [4]): 0.5804 log2

Difference (log2), PP1 vs untreated [1, 13]: -2.037 log2
Substance: MARK1
Difference (log2), untreated vs GFP (GFP-14-3-3β; [12]): 5.5786 log2

Difference (log2), PP1 vs untreated [1, 11]: -0.2746 log2
Substance: ECM29
Difference (log2), untreated vs GFP (GFP-14-3-3β; [10]): -0.4278 log2

Reference: PMC7367873, “Dissecting the sequence determinants for dephosphorylation by the catalytic subunits of phosphatases PP1 and PP2A” (Nature Communications, 2020)
